These results are taken from patent US10329270B2, “Heteroaryl compounds as BTK inhibitors and uses thereof” (Merck Patent GmbH, priority 2013, dated 2019).

The target of the test is T1, full-length human BTK (Homo sapiens, UniProt Q06187).
T1 construct: 2.5× stocks of full-length human BTK (08-080); purchased CarnaBio USA, Inc., Natick, Mass; 08-080
T1 sequence (Q06187 whole entry): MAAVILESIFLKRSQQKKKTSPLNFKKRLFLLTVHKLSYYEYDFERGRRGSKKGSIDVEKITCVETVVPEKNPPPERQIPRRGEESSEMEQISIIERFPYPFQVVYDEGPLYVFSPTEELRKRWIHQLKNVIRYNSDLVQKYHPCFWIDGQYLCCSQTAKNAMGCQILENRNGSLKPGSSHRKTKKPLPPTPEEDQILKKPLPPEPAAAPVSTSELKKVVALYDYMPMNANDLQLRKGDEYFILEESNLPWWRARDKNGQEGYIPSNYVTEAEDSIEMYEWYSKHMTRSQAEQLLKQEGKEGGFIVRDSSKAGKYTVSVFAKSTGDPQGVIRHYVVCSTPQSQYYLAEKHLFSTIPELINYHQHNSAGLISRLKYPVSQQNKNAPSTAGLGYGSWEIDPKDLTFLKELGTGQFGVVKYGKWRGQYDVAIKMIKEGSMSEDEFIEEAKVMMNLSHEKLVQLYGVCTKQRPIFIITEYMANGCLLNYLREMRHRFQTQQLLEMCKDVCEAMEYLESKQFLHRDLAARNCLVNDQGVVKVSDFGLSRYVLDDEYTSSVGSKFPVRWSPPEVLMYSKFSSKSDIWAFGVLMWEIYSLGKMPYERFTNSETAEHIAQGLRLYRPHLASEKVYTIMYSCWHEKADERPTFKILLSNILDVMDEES
Description: Assay A: BTK IC50 Enzyme Assay (microfluidic off-chip mobility shift kinase assay). Type of test: biochemical. To be noted: full-length human BTK, kinKDR peptide substrate, incubated 90 min at 27 C; read-out: Assay A (Time Dependent BTK Enzyme Assay IC50). Put shortly:
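Off-chip microfluidic mobility shift assay with full-length human BTK; phosphorylated and unphosphorylated peptide substrate were separated by charge/mass on a LabChip 3000.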
Broadly, the IC50 is the point on the concentration scale where inhibition reaches its midpoint. `C=CC(=O)N1CCC(c2cc(Oc3ccc(OCc4ccccc4)cc3)c(C(N)=O)cn2)C1` (stereo not shown) [Compound 111, 6-(1-acryloylpyrrolidin-3-yl)-4-(4-(benzyloxy)phenoxy)nicotinamide]: the IC50 was under 100 nM. The value for `C=CC(=O)Nc1cccc(-c2ccc(C(N)=O)c(Oc3ccc(Oc4ccccc4)cc3)n2)c1` [Compound 80, 6-(3-acrylamidophenyl)-2-(4-phenoxyphenoxy)nicotinamide] was under 100 nM; that for `C=CC(=O)NCc1cccc(-c2ccc(C(N)=O)c(Oc3ccc(Oc4ccccc4)cc3)n2)c1` [Compound 98, 6-(3-(acrylamidomethyl)phenyl)-2-(4-phenoxyphenoxy)nicotinamide] was 1000 to 5000 nM. In the case of `C=CC(=O)N1CCC(c2ccc(C(N)=O)c(Oc3ccc(Oc4ccccc4)cc3)n2)CC1` [Compound 64, 6-(1-acryloylpiperidin-4-yl)-2-(4-phenoxyphenoxy)nicotinamide], the IC50 is under 100 nM. The value for `N#CN1CC2(CC(Nc3ncc(C(N)=O)c(Oc4ccc(Oc5ccccc5)cc4)n3)C2)C1` [Compound 242, 2-[(2-cyano-2-azaspiro[3.3]heptan-6-yl]amino)-4-(4-phenoxyphenoxy)pyrimidine-5-carboxamide] was over 5000 nM; that for `C=CC(=O)N[C@H]1CCN(c2nc(Nc3ccc(C(=O)NC(C)(C)C)cc3)c(C(N)=O)cc2F)C1` [Compound 5, 6-((S)-3-Acryloylamino-pyrrolidin-1-yl)-2-(4-tert-butylcarbamoyl-phenylamino)-5-fluoro-nicotinamide] was 100 to 1000 nM; that for `C=CC(=O)N[C@H]1CCN(c2ccc(C(N)=O)c(NC3CCN(C)CC3)n2)C1` [Compound 62, 6-((S)-3-Acryloylamino-pyrrolidin-1-yl)-2-(1-methyl-piperidin-4-ylamino)-nicotinamide] was over 5000 nM. The value for `C=CC(=O)N[C@H]1CCN(c2ccc(C(N)=O)c(NC3CCOCC3)n2)C1` [Compound 165, 6-((S)-3-Acryloylamino-pyrrolidin-1-yl)-2-(tetrahydro-pyran-4-ylamino)-nicotinamide] was over 5000 nM; that for `C=CC(=O)N1CCn2ncc(-c3cnc(C(N)=O)nc3)c2C1` [Compound 154] was over 5000 nM; that for `N#CN1CCC[C@@H](c2cnc(Oc3ccc(Oc4ccc(F)cc4F)cc3)c(C(N)=O)c2)C1` [Compound 249, 5-[(3S)-1-cyanopiperidin-3-yl]-2-[4-(2,4-difluorophenoxy)phenoxy]pyridine-3-carboxamide] was over 5000 nM. The value for `CN(C)C/C=C/C(=O)N[C@@H]1CCN(c2ncc(C(N)=O)c(N)n2)C1` [Compound 146, 4-Amino-2-[(R)-3-((E)-4-dimethylamino-but-2-enoylamino)-pyrrolidin-1-yl]-pyrimidine-5-carboxylic acid amide] was over 5000 nM; that for `C=CC(=O)N[C@H]1CCN(c2ccc(C(N)=O)c(Oc3ccc(C(=O)N4CCOCC4)cc3)n2)C1` [Compound 101, 6-((S)-3-Acryloylamino-pyrrolidin-1-yl)-2-[4-(morpholine-4-carbonyl)-phenoxy]-nicotinamide] was over 5000 nM; that for `C/C=C/C(=O)NC1CCN(c2cnc(Oc3ccc(Oc4ccccc4)cc3)c(C(N)=O)c2)CC1` [Compound 200, 4-((E)-But-2-enoylamino)-6′-(4-phenoxy-phenoxy)-3,4,5,6-tetrahydro-2H-[1,3′]bipyridinyl-5′-carboxylic acid amide] was over 5000 nM. For the molecule `C=CC(=O)N[C@H]1CCN(c2nc(Nc3ccc(N4C[C@@H](C)O[C@@H](C)C4)nc3)c(C(N)=O)cc2F)C1` [Compound 6, 6-((S)-3-Acryloylamino-pyrrolidin-1-yl)-2-[6-(cis-2,6-dimethyl-morpholin-4-yl)-pyridin-3-ylamino]-5-fluoro-nicotinamide], the IC50 lay within 1000 to 5000 nM. As to `N#CN1CCC(c2cnc(Oc3ccc(Oc4ccccc4)cc3)c(C(N)=O)c2)C1` (stereo not shown) [Compound 245, 5-(1-cyanopyrrolidin-3-yl)-2-(4-phenoxyphenoxy)pyridine-3-carboxamide], the half-maximal inhibitory concentration (IC50) was in the range of 1000 to 5000 nM. The value for `C=CC(=O)N[C@@H]1CCCN(c2ccc(C(N)=O)c(Nc3ccc(CCN4CCCC4)cc3)n2)C1` [Compound 56, (R)-3-Acryloylamino-6′-[4-(2-pyrrolidin-1-yl-ethyl)-phenylamino]-3,4,5,6-tetrahydro-2H-[1,2′]bipyridinyl-5′-carboxylic acid amide] was under 100 nM; that for `C=CC(=O)N1CCC[C@H](c2cnc(Oc3ccc(Oc4ccccc4)cc3)c(C(N)=O)c2)C1` [Compound 124, (R)-5-(1-acryloylpiperidin-3-yl)-2-(4-phenoxyphenoxy)nicotinamide] was under 100 nM. With `C=CC(=O)N1CCC(c2ccc(C(N)=O)c(Nc3ccc(N4C[C@@H](C)O[C@@H](C)C4)nc3)n2)CC1` [Compound 32, 1′-Acryloyl-6-[6-((2R,6S)-2,6-dimethyl-morpholin-4-yl)-pyridin-3-ylamino]-1′,2′,3′,4′,5′,6′-hexahydro-[2,4′]bipyridinyl-5-carboxylic acid amide], the half-inhibitory concentration (IC50) was under 100 nM. The value for `C=CC(=O)NC1CCC(c2cnc(C(N)=O)c(NC(C)=O)c2)CC1` (stereo not shown) [Compound 133] was 1000 to 5000 nM; that for `C/C=C/C(=O)NC1CCCN(c2cnc(Oc3ccc(Oc4ccccc4)cc3)c(C(N)=O)c2)C1` (stereo not shown) [Compound 213, 3-((E)-But-2-enoylamino)-6′-(4-phenoxy-phenoxy)-3,4,5,6-tetrahydro-2H-[1,3′]bipyridinyl-5′-carboxylic acid amide] was over 5000 nM. Regarding `C=CC(=O)N1C[C@@H]2C[C@H]1CN2c1ccc(C(N)=O)c(Nc2ccc(C)nc2)n1` [Compound 8], the 50% inhibitory concentration (IC50) is under 100 nM.

With `C/C=C/C(=O)N1CCC(Nc2cnc(Oc3ccc(Oc4cccc(F)c4)cc3)c(C(N)=O)c2)CC1` [Compound 230, 5-[1-((E)-But-2-enoyl)-piperidin-4-ylamino]-2-[4-(3-fluoro-phenoxy)-phenoxy]-nicotinamide], the concentration for half-maximal inhibition (IC50) was in the range of 1000 to 5000 nM. `C=CC(=O)N[C@H]1CCN(c2ccc(C(N)=O)c(Nc3ccc(NC(=O)C(C)(C)C)cc3)n2)C1` [Compound 59, 6-((S)-3-Acryloylamino-pyrrolidin-1-yl)-2-[4-(2,2-dimethyl-propionylamino)-phenylamino]-nicotinamide]: the IC50 was in the range of 100 to 1000 nM.

As for `CN(C)C/C=C/C(=O)N1CCC(c2ccc(C(N)=O)c(Oc3ccc(Oc4ccccc4)cc3)n2)CC1` [Compound 76, 1′-((E)-4-Dimethylamino-but-2-enoyl)-6-(4-phenoxy-phenoxy)-1′,2′,3′,4′,5′,6′-hexahydro-[2,4′]bipyridinyl-5-carboxylic acid amid], the IC50 is under 100 nM. The result for `C=CC(=O)N1CCC(Nc2cnc(Oc3ccc(Oc4ccccc4)cc3)c(C(N)=O)c2)CC1` [Compound 252, 5-(1-Acryloyl-piperidin-4-ylamino)-2-(4-phenoxy-phenoxy)-nicotinamide] reads under 100 nM; that for `C=CC(=O)N1CC=C(c2ccc(C(N)=O)c(Nc3ccc(OC4CCN(C)CC4)cc3)n2)CC1` [Compound 13, 1′-Acryloyl-6-[4-(1-methyl-piperidin-4-yloxy)-phenylamino]-1′,2′,3′,6′-tetrahydro-[2,4′]bipyridinyl-5-carboxylic acid amide], under 100 nM; that for `C=CC(=O)N1CCCC(Nc2cnc(Oc3ccc(Oc4cccc(F)c4)cc3)c(C(N)=O)c2)C1` (stereo not shown) [Compound 251], 100 to 1000 nM. The value for `C=CC(=O)N1[C@@H]2CC[C@H]1CC(c1cnc(C(N)=O)cn1)C2` (stereo partly shown) [Compound 136] was 1000 to 5000 nM; that for `C=CC(=O)N1CCC(c2ccc(C(N)=O)c(Nc3cccnc3)n2)CC1` [Compound 53, 1′-Acryloyl-6-(pyridin-3-ylamino)-1′,2′,3′,4′,5′,6′-hexahydro-[2,4′]bipyridinyl-5-carboxylic acid amide] was under 100 nM; that for `C=CC(=O)N[C@H]1CCN(c2ncc(C#N)c(Nc3ccc(C(=O)NC(C)(C)C)cc3)n2)C1` [Compound 178] was under 100 nM. The value for `C/C=C/C(=O)N1CCC(Nc2cnc(Oc3ccc(Oc4ccccc4)cc3)c(C(N)=O)c2)CC1` [Compound 234, 5-[1-((E)-But-2-enoyl)-piperidin-4-ylamino]-2-(4-phenoxy-phenoxy)-nicotinamide] was 1000 to 5000 nM. As to `C=CC(=O)N[C@@H]1CCN(c2ccc(C(N)=O)c(N)n2)C1` [Compound 61, 6-((R)-3-Acryloylamino-pyrrolidin-1-yl)-2-amino-nicotinamide], the 50% inhibitory concentration (IC50) was 1000 to 5000 nM.

On to `C/C=C/C(=O)N1CC2CN(c3cnc(Oc4ccc(Oc5cccc(F)c5)cc4)c(C(N)=O)c3)CC2C1` (stereo not shown) [Compound 235, 5-[5-((E)-But-2-enoyl)-hexahydro-pyrrolo[3,4-c]pyrrol-2-yl]-2-[4-(3-fluoro-phenoxy)-phenoxy]-nicotinamide], for which the half-inhibitory concentration (IC50) was over 5000 nM. The result for `CC(C)=CC(=O)C1CCN(c2ccc(C(N)=O)c(Oc3ccc(Oc4ccccc4)cc3)n2)C1` (stereo not shown) [Compound 93, 6-[3-(3-Methyl-but-2-enoyl)-pyrrolidin-1-yl]-2-(4-phenoxy-phenoxy)-nicotinamide] reads 100 to 1000 nM; that for `C=CC(=O)N1CCCC(Nc2cnc(Oc3ccc(Oc4ccccc4)cc3)c(C(N)=O)c2)C1` (stereo not shown) [Compound 223, 5-(1-Acryloyl-piperidin-3-ylamino)-2-(4-phenoxy-phenoxy)-nicotinamide], 100 to 1000 nM.

Consider `C/C=C/C(=O)NC1CCN(c2cnc(Oc3ccc(Oc4cccc(F)c4)cc3)c(C(N)=O)c2)CC1` [Compound 214, 4-((E)-But-2-enoylamino)-6′-[4-(3-fluoro-phenoxy)-phenoxy]-3,4,5,6-tetrahydro-2H-[1,3′]bipyridinyl-5′-carboxylic acid amide], for which the IC50 was over 5000 nM. As to `C=CC(=O)N[C@H]1CCN(c2ccc(C(N)=O)c(Nc3ccc(C(=O)N4CCOCC4)cc3)n2)C1` [Compound 35, 6-((S)-3-Acryloylamino-pyrrolidin-1-yl)-2-[4-(morpholine-4-carbonyl)-phenylamino]-nicotinamide], the IC50 was under 100 nM.
